{"source": "patent US20240051938A1", "about": "“SELECTIVE BRD4-DEGRADER MOLECULES” (Regents of the University of Minnesota, priority 2022, published 2024)", "key": {"[1]": {"target": "T1, BRD3 (Homo sapiens, UniProt Q15059)", "T1 sequence (Q15059 whole entry)": "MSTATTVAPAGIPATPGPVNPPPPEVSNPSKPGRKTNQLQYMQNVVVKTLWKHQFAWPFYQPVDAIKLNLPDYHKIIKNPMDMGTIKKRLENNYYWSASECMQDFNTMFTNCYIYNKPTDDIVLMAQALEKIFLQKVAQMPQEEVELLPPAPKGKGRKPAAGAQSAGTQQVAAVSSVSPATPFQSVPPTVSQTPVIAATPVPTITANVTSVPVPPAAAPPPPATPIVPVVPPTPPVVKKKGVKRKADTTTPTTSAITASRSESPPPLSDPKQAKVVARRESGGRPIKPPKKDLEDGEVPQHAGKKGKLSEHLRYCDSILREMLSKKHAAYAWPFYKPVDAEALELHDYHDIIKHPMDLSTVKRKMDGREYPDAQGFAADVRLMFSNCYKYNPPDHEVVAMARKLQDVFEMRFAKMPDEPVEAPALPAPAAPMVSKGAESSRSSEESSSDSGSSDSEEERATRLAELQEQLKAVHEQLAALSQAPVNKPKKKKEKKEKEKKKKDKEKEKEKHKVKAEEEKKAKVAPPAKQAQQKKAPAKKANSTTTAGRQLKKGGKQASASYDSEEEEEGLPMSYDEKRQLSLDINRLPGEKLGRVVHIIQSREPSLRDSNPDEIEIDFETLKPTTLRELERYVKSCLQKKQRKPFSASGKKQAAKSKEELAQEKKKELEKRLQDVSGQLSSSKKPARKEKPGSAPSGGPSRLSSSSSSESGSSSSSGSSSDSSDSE", "details": "cited from earlier work"}, "[2]": {"target": "T2, BRD2 (Homo sapiens, UniProt P25440)", "T2 sequence (P25440 whole entry)": "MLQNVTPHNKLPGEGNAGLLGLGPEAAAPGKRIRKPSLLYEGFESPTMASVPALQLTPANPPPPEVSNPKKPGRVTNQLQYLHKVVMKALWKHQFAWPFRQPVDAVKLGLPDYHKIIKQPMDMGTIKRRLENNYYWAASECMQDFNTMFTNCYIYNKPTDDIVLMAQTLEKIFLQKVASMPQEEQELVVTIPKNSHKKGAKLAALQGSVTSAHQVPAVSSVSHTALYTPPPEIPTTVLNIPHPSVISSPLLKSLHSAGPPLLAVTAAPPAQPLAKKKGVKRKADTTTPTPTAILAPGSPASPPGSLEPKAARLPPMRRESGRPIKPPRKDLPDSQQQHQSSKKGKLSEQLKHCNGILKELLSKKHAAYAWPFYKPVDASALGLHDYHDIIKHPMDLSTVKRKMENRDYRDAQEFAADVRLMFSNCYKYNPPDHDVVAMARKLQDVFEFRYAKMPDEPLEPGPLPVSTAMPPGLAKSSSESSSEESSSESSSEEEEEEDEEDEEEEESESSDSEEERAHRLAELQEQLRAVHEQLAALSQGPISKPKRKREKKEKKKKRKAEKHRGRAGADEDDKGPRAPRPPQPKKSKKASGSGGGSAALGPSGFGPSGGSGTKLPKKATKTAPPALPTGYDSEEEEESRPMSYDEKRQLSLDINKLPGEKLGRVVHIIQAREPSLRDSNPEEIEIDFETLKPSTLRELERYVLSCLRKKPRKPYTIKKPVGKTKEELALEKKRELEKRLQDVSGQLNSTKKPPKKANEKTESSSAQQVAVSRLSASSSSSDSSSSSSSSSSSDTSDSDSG", "details": "cited from earlier work"}, "[3]": {"target": "T3, BRD4 (Homo sapiens, UniProt O60885)", "test": "cell-based", "details": "HEK293, read-out: HEK293 (Dmax)"}, "[4]": {"target": "T3, BRD4", "details": "BRD4 degradation, 6 hours, N = 1; for DC50: read-out: HEK293 (DC50)"}, "[5]": {"target": "T3, BRD4", "test": "Rescue of dBRD4-BD1-induced BRD4 degradation in MM.1S cells (competition experiments)", "format": "cell-based", "parameters": "endogenous in cells", "details": "competition with dBRD4-BD1"}, "[6]": {"system": "cMyc", "test": "Western blot cMyc expression in MM.1S cells", "format": "cell-based", "details": "compared with previously reported BRD4 degraders", "description": "(§1) Western Blotting: MM.1S cells were seeded in 12-well plates at a density of 4×10^6 cells per well and treated with compounds for indicated times. Cells were transferred to 2 mL microcentrifuge tubes and harvested by low-speed centrifugation at 500×g. for 5 minutes. The well was rinsed, and the cell pellet washed twice with ice-cold PBS with centrifuging. The supernatant was carefully decanted, and the cell pellet was resuspended for lysis in 100 μL of RIPA buffer (ThermoFisher Scientific) supplemented with 1× cOmplete Mini Protease (Roche) and stored on ice for 10 minutes. After high-speed centrifugation (10 min at 10,000 X g.), protein concentrations were determined by the BCA assay (ThermoFisher Scientific) and normalized by total protein content."}, "[7]": {"target": "T1, BRD3", "test": "Western blot BRD3 levels in MM.1S cells", "format": "cell-based", "description": "(§2) FIG. 4A-4D: Degradation of BRD4 in MM.1S cells. (A) Representative blots for degradation of BRD4 after 24-hour treatment. (B) Quantified densitometry for three biological replicates of blots from (A). (C) Time-course study of BRD4 degradation by dBRD4-BD1. (D) Rescue of BRD4 degradation using pan-BD1, proteasome and neddylation inhibitors, but not pan-BD2 inhibitor, iBET-BD2.\nas §1"}, "[8]": {"target": "T2, BRD2", "test": "Western blot BRD2 levels in MM.1S cells", "format": "cell-based", "description": "as §2, §1"}, "[9]": {"target": "T3, BRD4", "test": "Western blot BRD4 degradation in MV411 cells", "format": "cell-based", "parameters": "endogenous in cells", "details": "6 hours, N = 1"}, "[10]": {"system": "MM.1S cells", "test": "72 hour Alamar blue cytotoxicity assay of MM.1S cells", "format": "cell-based", "description": "FIG. 5: 72 hour Alamar blue cytotoxicity assay of MM.1S cells with compounds. Data reported as mean±SD of three independent trials of three replicates each.\nViability Assays: MM. 1 S cells were seeded in 96-well plates at approximately 20 000 cells per well (0.05 mL) and dosed with increasing compound concentrations in the presence of DMSO with three technical replicates per concentration. After incubation for 69 hours at 37° C., 10 μL of the Alamar Blue reagent (Invitrogen) was added to each well and the plates were incubated for 3 hours at 37° C. Fluorescence was determined using a Synergy plate reader (BioTek, Ex.: 560 nm, Em.: 590 nm) and dose-response data were normalized to untreated and blank wells containing 0.05% DMSO in cell culture media. Data analysis was performed using GraphPad Prism."}, "[11]": {"target": "T4, 9xHis-BRD4-BD1 (Homo sapiens, UniProt O60885)", "T4 construct": "30 nM for His9-tagged BRD4-BD1 bromodomain and 50 nM for the biotinylated peptide were used; made in house", "test": "AlphaScreen binding assay with His9-tagged BRD4-BD1 (1% DMSO)", "details": "1% v/v DMSO; mean of three independent trials in duplicate; read-out: BRD4-BD1 IC50 (apparent binding)"}, "[12]": {"target": "BRD4 (Homo sapiens, UniProt O60885+Q96SW2)", "sequence (Q96SW2 whole entry, one chain of several)": "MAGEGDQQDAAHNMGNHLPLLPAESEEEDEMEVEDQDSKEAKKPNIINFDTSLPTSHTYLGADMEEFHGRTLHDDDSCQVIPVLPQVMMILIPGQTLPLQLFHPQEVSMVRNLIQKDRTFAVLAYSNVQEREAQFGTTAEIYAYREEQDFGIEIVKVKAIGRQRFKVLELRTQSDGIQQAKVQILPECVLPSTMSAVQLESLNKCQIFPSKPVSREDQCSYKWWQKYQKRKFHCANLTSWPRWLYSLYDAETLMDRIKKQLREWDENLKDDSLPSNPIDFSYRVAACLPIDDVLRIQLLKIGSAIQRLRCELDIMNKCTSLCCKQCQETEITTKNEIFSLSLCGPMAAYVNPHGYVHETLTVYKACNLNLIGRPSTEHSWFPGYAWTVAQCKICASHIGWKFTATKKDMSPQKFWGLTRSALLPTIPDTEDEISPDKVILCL", "test": "TR-FRET ternary-complex formation", "format": "biochemical"}, "[13]": {"target": "T3, BRD4", "test": "Western blot BRD4 degradation in MM.1S cells", "format": "cell-based", "parameters": "endogenous in cells", "from_the_text": "as §2\nThe mixed suspension/adherent cells were subcultured at a 1:10 dilution by decanting suspended cells and dissociating adherent cells from plates in 0.25% trypsin/EDTA (Gibco) with 2 min incubation times. Cell-line authenticity was verified using the short-tandem-repeat (STR)-profiling service provided by ATCC.\nas §1"}, "[14]": {"test": "Solubility observed in AlphaScreen assay", "details": "required increased DMSO (1% v/v) in assay"}, "[15]": {"target": "T5, p38a kinase (Homo sapiens, UniProt Q16539)", "T5 construct": "endogenous in cells; host or cells: MM.1S", "T5 sequence (Q16539 whole entry)": "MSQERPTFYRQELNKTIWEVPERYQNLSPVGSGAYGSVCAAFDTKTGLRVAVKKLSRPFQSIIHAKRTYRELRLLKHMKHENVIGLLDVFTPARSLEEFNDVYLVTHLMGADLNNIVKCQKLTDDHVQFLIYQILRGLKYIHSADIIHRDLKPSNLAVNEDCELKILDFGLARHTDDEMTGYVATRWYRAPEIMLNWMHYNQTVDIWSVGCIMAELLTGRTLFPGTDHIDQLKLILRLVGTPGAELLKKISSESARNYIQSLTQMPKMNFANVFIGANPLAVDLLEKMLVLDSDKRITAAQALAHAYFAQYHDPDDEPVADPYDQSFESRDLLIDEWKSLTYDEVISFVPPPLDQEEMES", "test": "Western blot p38a levels in MM.1S cells", "format": "cell-based", "details": "24-hour time-point or time-course study at 5 μM", "description": "as §2, §1"}, "[16]": {"target": "T3, BRD4", "test": "Competition of MZ1-induced BRD4 degradation with pan-BD1 or pan-BD2 inhibitors", "format": "cell-based", "parameters": "endogenous in cells; host or cells: HEK293T", "details": "competition with pan-BET degrader MZ1"}}, "note": "Like-named read-outs stand apart in the source and are kept apart here. Peptide text beside a SMILES is read from it. * marks the point of attachment. Cbz = O=C(OCc1ccccc1)*"}
{"smiles": "CC(=O)N[C@H](C(=O)N1C[C@H](O)C[C@H]1C(=O)NCc1ccc(-c2scnc2C)cc1)C(C)(C)SCCCCCCNC(=O)C[C@@H]1N=C(c2ccc(Cl)cc2)c2c(sc(C)c2C)-n2c(C)nnc21", "note": "[AT1]", "values": [{"measurement": "concentration of BRD3 upon BRD4 degradation", "setting": "[1]", "value": "remain unchanged"}, {"measurement": "concentration of BRD2 upon BRD4 degradation", "setting": "[2]", "value": "remain unchanged"}]}
{"smiles": "Cc1ccc(C(C)C)cc1Oc1nccc(-c2c(-c3ccc(C(F)(F)F)cc3)ncn2C2CCN(CCOCCOCCNC(=O)CN(C)c3cccc4c3C(=O)N(C3CCC(=O)NC3=O)C4=O)CC2)n1", "note": "(centres unmarked) [Example 4]", "values": [{"measurement": "Dmax", "setting": "[3]", "value": 84, "unit": "%"}, {"measurement": "DC50", "setting": "[4]", "value": 105, "unit": "nM"}]}
{"smiles": "Cc1ccc(C(C)C)cc1Oc1nccc(-c2c(-c3ccc(C(F)(F)F)cc3)ncn2C2CCN(CCOCCOCCNC(=O)CNc3cccc4c3C(=O)N(C3CCC(=O)NC3=O)C4=O)CC2)n1", "note": "(centres unmarked) [Example 5]", "values": [{"measurement": "Dmax", "setting": "[3]", "value": 60, "unit": "%"}, {"measurement": "DC50", "setting": "[4]", "value": 290, "unit": "nM"}]}
{"smiles": "Cc1ccc(C(C)C)cc1Oc1nccc(-c2c(-c3ccc(C(F)(F)F)cc3)ncn2C2CCN(CCNC(=O)COc3cccc4c3C(=O)N(C3CCC(=O)NC3=O)C4=O)CC2)n1", "note": "(centres unmarked) [Example 6]", "values": [{"measurement": "Dmax", "setting": "[3]", "value": 95, "unit": "%"}, {"measurement": "DC50", "setting": "[4]", "value": 810, "unit": "nM"}]}
{"smiles": "CC(C)C[C@@H](C=O)NC(=O)[C@H](CC(C)C)NC(=O)[C@H](CC(C)C)NC(=O)OCc1ccccc1", "note": "[MG-132] (Cbz-Leu-Leu-Leu-aldehyde)", "values": [{"measurement": "rescue of BRD4 degradation by dBRD4-BD1", "setting": "[5]", "value": "rescue of BRD4 degradation was observed"}]}
{"smiles": "NS(=O)(=O)OC[C@@H]1C[C@@H](n2ccc3c(N[C@H]4CCc5ccccc54)ncnc32)C[C@@H]1O", "note": "[MLN4924]", "values": [{"measurement": "rescue of BRD4 degradation by dBRD4-BD1", "setting": "[5]", "value": "rescue of BRD4 degradation was observed"}]}
{"smiles": "COC(=O)C[C@@H]1N=C(c2ccc(Cl)cc2)c2c(sc(C(=O)NCCCCCNc3cccc4c3C(=O)N(C3CCC(=O)NC3=O)C4=O)c2C)-n2c(C)nnc21", "note": "(some centres unmarked) [ZXH-3-26]", "values": [{"measurement": "concentration of BRD3 upon BRD4 degradation", "setting": "[1]", "value": "remain unchanged"}, {"measurement": "concentration of BRD2 upon BRD4 degradation", "setting": "[2]", "value": "remain unchanged"}]}
{"smiles": "Cc1ccc(C(C)C)cc1Oc1nccc(-c2c(-c3ccc(C(F)(F)F)cc3)ncn2C2CCN(CCOCCOCCNC(=O)COc3cccc4c3C(=O)N(C3CCC(=O)NC3=O)C4=O)CC2)n1", "note": "(centres unmarked) [dBRD4-BD1]", "values": [{"measurement": "effect on cMyc expression", "setting": "[6]", "value": "weaker effect on cMyc expression"}, {"measurement": "BRD3 level at concentrations where BRD4 was degraded", "setting": "[7]", "value": "upregulated"}, {"measurement": "degradation of BRD3", "setting": "[7]; 24-hour treatment", "value": "not observed"}, {"measurement": "BRD2 level at concentrations where BRD4 was degraded", "setting": "[8]", "value": "upregulated"}, {"measurement": "degradation of BRD2", "setting": "[8]; 24-hour treatment", "value": "not observed"}, {"measurement": "HEK293 (Dmax)", "setting": "[4]", "value": 100, "unit": "%"}, {"measurement": "DC50", "setting": "[4]", "value": 500, "unit": "nM"}, {"measurement": "DC50", "setting": "[9]", "value": 14, "unit": "nM"}, {"measurement": "MV411 (Dmax)", "setting": "[9]", "value": 85, "unit": "%"}, {"measurement": "cytotoxicity", "setting": "[10]", "value": "lower observed cytotoxicity"}, {"measurement": "IC50", "setting": "[11]", "value": 1360, "unit": "nM"}, {"measurement": "ternary-complex formation by TR-FRET", "setting": "[12]", "value": "moderate ternary-complex formation"}, {"measurement": "BRD4 degradation Dmax", "setting": "[13]; 24-hour treatment", "value": 23, "unit": "%"}, {"measurement": "DC50", "setting": "[13]; 24-hour treatment", "value": 280, "unit": "nM"}, {"measurement": "concentration above which BRD4 degradation diminished (hook effect)", "setting": "[13]; 24-hour treatment", "value": "> 5", "unit": "µM"}, {"measurement": "time to maximal BRD4 degradation", "setting": "[13]; time-course study at 5 μM", "value": 8, "unit": "h"}, {"measurement": "solubility", "setting": "[14]", "value": "poor solubility"}, {"measurement": "degradation of p38a", "setting": "[15]", "value": "not observed"}]}
{"smiles": "CC(=O)Nc1c(F)cc(C(=O)N[C@H]2CC[C@H](O)CC2)cc1O[C@@H](C)c1ccccc1", "note": "[iBET-BD2]", "values": [{"measurement": "rescue of BRD4 degradation by dBRD4-BD1", "setting": "[5]", "value": "no effect"}, {"measurement": "prevention of MZ1-induced BRD4 degradation by competitor", "setting": "[16]", "value": "neither BD1 nor BD2 inhibition was able to prevent BRD4 degradation"}]}
